US10172837B2, “Insulin sensitisers and methods of treatment” (NAIA Metabolic, Inc., priority 2007, dated 2019)

Tests used:
Type in all cases: in vivo, Mus Musculus
[1] = Body weight of treated db/db mice; settings: Day 0, Day 8 or Day 18, db/db mice
Description: Male C57Bl/6J db/db mice were obtained at 10 weeks of age from Animal Resources Centre ([…], Western Australia). Animals were individually housed and allowed free movement and ad libitum access to water and food. Animals were maintained on a 12 hour light (6 am-6 pm) and 12 hour dark (6 pm-6 am) cycle. Animals were monitored daily. Body weight, food and water intake were recorded 3 times a week. Mice were fed a standard chow diet, and used after a two week acclimatisation period.

[2] = Body weight of treated diet-induced obese mice; settings: Day 0 or Day 13, DIO mice
Description: Male C57Bl/6J mice were obtained at 8 weeks of age from Animal Resources Centre (Canning Vale, Western Australia). Animals were individually housed and allowed free movement and ad libitum access to water and food. Animals were maintained on a 12 hour light (6 am-6 pm) and 12 hour dark (6 pm-6 am) cycle. Animals were monitored daily. Body weight, food and water intake were recorded 3 times a week.

[3] = tested on: Diet-Induced Obese (DIO) Mice; experiment: ipGTT (glucose tolerance) in diet-induced obese mice
[4] = tested on: Diet-Induced Obese (DIO) Mice; experiment: Fasting plasma glucose in diet-induced obese mice
db/db mice = experiment: Fasting plasma glucose in db/db mice; settings: for FPG Day 0: Methazolamide 20 mg/kg group
Source text: The db/db mouse model comprises mice with a homozygous mutation of the leptin receptor gene that ablates leptin signalling in the hypothalamus and elsewhere. The db/db mouse model is commonly used to study the genetic and physiological mechanisms of obesity and type II diabetes. […] Leptin acts through the leptin receptor to control whole-body energy homeostasis by regulating both appetite and energy expenditure. Loss of function of the leptin receptor gene results in hyperphagia and slower metabolism, leading to obesity and eventually diabetes. […] Dosing solutions of the test articles: Methazolamide, Metformin and Methazolamide/Metformin were prepared fresh on each dosing day and stored at room temperature, protected from light. The compound was formulated in sterile vehicle: […] Stock solutions were prepared by dissolving the compound in NMP:PEG300 (1:2, v/v). Saline was added to the stock solution prior to administration of the compound. The solutions were mixed by vortexing immediately prior to dosing to ensure a homogeneous suspension of the compound. Male C57Bl/6J db/db mice were obtained at 10 weeks of age from Animal Resources Centre ([…], Western Australia). Animals were individually housed and allowed free movement and ad libitum access to water and food. Animals were maintained on a 12 hour light (6 am-6 pm) and 12 hour dark (6 pm-6 am) cycle. Animals were monitored daily. Body weight, food and water intake were recorded 3 times a week. Mice were fed a standard chow diet, and used after a two week acclimatisation period. […] The fasting plasma glucose levels of the animals was tested prior to commencement of the study and then every 3-4 days during dosing. The animals were fasted for a period of 4 hours after dosing and prior to the taking of a blood sample via a tail nick. Blood glucose levels were monitored using commercially available glucometers (Accuchek Advantage, Roche) based on the electric current generated when a blood drop is spotted on a test strip resulting in conversion of the glucose present in the sample to gluconolactone by the glucose dehydrogenase enzyme, in the presence of the coenzyme (PQQ).

[5] = Methazolamide 10 mg/kg oral gavage (Table 5-2)
[6] = Methazolamide 10 mg/kg oral gavage (Table 8-2)
[7] = Methazolamide 20 mg/kg group, before dosing
[8] = Methazolamide 20 mg/kg oral gavage
[9] = Methazolamide 50 mg/kg group, before dosing
[10] = Methazolamide 50 mg/kg oral gavage
[11] = Methazolamide 100 mg/kg group, before dosing
[12] = Methazolamide 100 mg/kg oral gavage
[13] = Methazolamide 10 mg/kg oral gavage (Table 5-1)
[14] = Methazolamide 10 mg/kg oral gavage (Table 8-1)

SMILES: CC(=O)/N=c1\sc(S(N)(=O)=O)nn1C [Methazolamide, 5-acetylimino-4-methyl-Δ^2-1,3,4-thiadiazoline-2-sulfonamide]
- difference in body weight vs Vehicle group [1]: no difference in body weight
- difference in body weight between treated groups [2]: no difference in body weight
- effect on glucose tolerance of diet-induced obese mice [3]: increased the glucose tolerance
- AUC Day −1 ([3]; Methazolamide 10 mg/kg group, before dosing (Table 5-2)): 1038 ± 129 mM·min
- AUC Day −1 ([3]; Methazolamide 10 mg/kg group, before dosing (Table 8-2)): 1190 ± 62 mM·min
- AUC Day 13 [3, 5]: 901 ± 139 mM·min
- Delta AUC Treatment Day 13 vs Day −1 [3, 5]: −13%^
- Delta AUC Treatment vs Vehicle Day 13 [3, 5]: −8%
- AUC Day 13 [3, 6]: 1131 ± 95 mM·min
- AUC Day 13 Treat vs Veh [3, 6]: −6%
- Delta AUC Day 13 vs Day −1 [3, 6]: −5%
- AUC Day −1 [3, 7]: 1070 ± 77 mM·min
- AUC Day 13 [3, 8]: 619 ± 106 mM·min
- Delta AUC Treatment Day 13 vs Day −1 [3, 8]: −42%^1
- Delta AUC Treatment vs Vehicle Day 13 [3, 8]: −37%^1
- AUC Day −1 [3, 9]: 1073 ± 112 mM·min
- AUC Day 13 [3, 10]: 710 ± 87 mM·min
- Delta AUC Treatment Day 13 vs Day −1 [3, 10]: −34%^1
- Delta AUC Treatment vs Vehicle Day 13 [3, 10]: −27%^1
- AUC Day −1 [3, 11]: 1080 ± 59 mM·min
- AUC Day 13 [3, 12]: 691 ± 60 mM·min
- Delta AUC Treatment Day 13 vs Day −1 [3, 12]: −36%^2
- Delta AUC Treatment vs Vehicle Day 13 [3, 12]: −29%^1
- effect on fasting plasma glucose levels of diet-induced obese mice [4]: reduced the fasting plasma glucose levels
- FPG Day −1 ([4]; Methazolamide 10 mg/kg group, before dosing (Table 5-1)): 6.92 ± 0.55 mM
- FPG Day −1 ([4]; Methazolamide 10 mg/kg group, before dosing (Table 8-1)): 6.1 ± 0.5 mM
- Delta FPG Treatment Day 13 vs Day −1 [4, 13]: 12%
- FPG Day 13 [4, 13]: 7.75 ± 0.43 mM
- FPG Treatment vs Vehicle Day 13 [4, 13]: 1%
- Delta FPG Treatment Day 13 vs Day −1 [4, 14]: 8%
- Delta FPG Treatment vs Vehicle Day 13 [4, 14]: −12%
- FPG Day 13 [4, 14]: 6.6 ± 0.4 mM
- FPG Day −1 [4, 7]: 7.28 ± 0.47 mM
- Delta FPG Treatment Day 13 vs Day −1 [4, 8]: −5%
- FPG Day 13 [4, 8]: 6.90 ± 0.24 mM
- FPG Treatment vs Vehicle Day 13 [4, 8]: −10%^
- FPG Day −1 [4, 9]: 7.20 ± 0.71 mM
- Delta FPG Treatment Day 13 vs Day −1 [4, 10]: −13%
- FPG Day 13 [4, 10]: 6.28 ± 0.31 mM
- FPG Treatment vs Vehicle Day 13 [4, 10]: −18%^1
- FPG Day −1 [4, 11]: 7.63 ± 0.55 mM
- Delta FPG Treatment Day 13 vs Day −1 [4, 12]: −21%
- FPG Day 13 [4, 12]: 6.05 ± 0.15 mM
- FPG Treatment vs Vehicle Day 13 [4, 12]: −21%^2
- FPG Day 0 (db/db mice; before dosing (Table 9-1)): 23.93 ± 1.6 mM
- FPG Day 0 (db/db mice; before dosing (Table 9-2)): 23.93 ± 1.6 mM
- Delta FPG Treatment Day 8 vs Day 0 (db/db mice; [8]): −32%^1
- Delta FPG Treatment Day 18 vs Day 0 (db/db mice; [8]): −29%^1
- FPG Day 8 (db/db mice; [8]): 16.30 ± 1.8 mM
- FPG Day 18 (db/db mice; [8]): 17.00 ± 2.5 mM
- FPG Treatment vs Vehicle Day 8 (db/db mice; [8]): −30%^4
- FPG Treatment vs Vehicle Day 18 (db/db mice; [8]): −38%^3
- effect on fasting plasma glucose levels of db/db mice (db/db mice; after 8 days of treatment): reduced the fasting plasma glucose levels
- effect on fasting plasma glucose levels of db/db mice (db/db mice; after 18 days of treatment): reduced the fasting plasma glucose levels
